3 molecules from patent publication US20080305519A1, “Biochemical method for specific protein labeling” (priority 2006, published 2008) can be followed below.

Experiment [1] concerns semi-purified tubulin/parkin complex. The experiment can be described thus: Biotin Tag Conjugation of Tubulin/Parkin Complex. It is filed as biochemical, rat. The note with it: for labeling of tubulin in tubulin/parkin complex (FIG. 8): FIG. 8 lanes 3 and 6; for biotin labeling efficiency of parkin-mediated tubulin modification versus recognition sequence: FIG. 2b, tags 1-6 compared. As to the method: A total of 4 μg semi-purified tubulin/parkin complex and varying concentrations of the biotin tag was incubated at 37° C. for 15 min in 10 μL buffers of 50 mM Tris, 50 mM NaCl, 10 mM MgCl2, 10 μM ATP, pH 7.6. For DTT reduction, 1 μL of 6M DTT was added and the solution was incubated at r.t. for additional 30 min. Reactions were terminated by the additions of 2 μL 6×SDS-PAGE sample buffer containing 100 mM DTT and the mixtures were boiled at 95° C. for 5 min. The biotin-labeled substrates were resolved from the free biotin tags with 8-16% Tris-Glycine SDS-PAGE gel, transferred onto the PVDF membrane using a semi-dry protein transfer apparatus, and detected using the VECTASTAIN ABC-AmP detection system following the manufacturer's protocol. The intensities of protein bands are quantified with the ImageJ program (http://rsb.info.nih.gov/ij/) following the program manual.

Experiment [2] concerns the target T1, ubiquitin activating enzyme (E1), rabbit (Oryctolagus cuniculus, UniProt Q29504).
T1 construct: purchased Boston Biochem E-302
T1 sequence (Q29504 1-1058): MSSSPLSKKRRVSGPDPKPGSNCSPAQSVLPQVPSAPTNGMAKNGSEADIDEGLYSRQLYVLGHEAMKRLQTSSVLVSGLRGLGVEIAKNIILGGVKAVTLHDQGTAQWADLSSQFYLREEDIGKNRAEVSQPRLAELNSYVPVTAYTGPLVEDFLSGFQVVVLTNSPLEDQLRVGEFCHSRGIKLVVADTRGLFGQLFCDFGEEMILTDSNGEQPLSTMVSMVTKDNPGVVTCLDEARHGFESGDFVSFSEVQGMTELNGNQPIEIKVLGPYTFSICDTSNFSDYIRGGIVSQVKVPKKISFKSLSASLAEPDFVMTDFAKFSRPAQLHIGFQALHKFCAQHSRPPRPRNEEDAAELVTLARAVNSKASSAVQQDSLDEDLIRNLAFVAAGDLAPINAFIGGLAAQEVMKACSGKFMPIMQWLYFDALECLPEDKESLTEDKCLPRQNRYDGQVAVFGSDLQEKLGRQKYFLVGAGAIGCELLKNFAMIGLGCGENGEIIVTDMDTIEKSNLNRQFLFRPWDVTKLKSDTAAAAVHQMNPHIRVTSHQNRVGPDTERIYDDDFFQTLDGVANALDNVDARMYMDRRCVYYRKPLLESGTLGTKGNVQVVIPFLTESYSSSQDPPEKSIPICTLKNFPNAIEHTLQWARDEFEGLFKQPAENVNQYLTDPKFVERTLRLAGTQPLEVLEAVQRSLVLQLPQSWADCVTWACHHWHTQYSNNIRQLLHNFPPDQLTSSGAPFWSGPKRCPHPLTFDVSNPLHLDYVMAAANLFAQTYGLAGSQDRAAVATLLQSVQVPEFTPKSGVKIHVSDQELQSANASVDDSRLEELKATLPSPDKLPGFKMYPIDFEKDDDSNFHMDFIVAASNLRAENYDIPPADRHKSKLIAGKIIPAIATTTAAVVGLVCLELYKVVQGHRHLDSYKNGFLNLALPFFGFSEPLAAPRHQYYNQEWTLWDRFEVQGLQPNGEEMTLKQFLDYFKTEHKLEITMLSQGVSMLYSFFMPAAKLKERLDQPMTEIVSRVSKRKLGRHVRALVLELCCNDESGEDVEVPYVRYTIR
Nature of the experiment: E1-Biotin Tag Conjugation Assay. Format: biochemical. As to the method:
The E1 enzyme was diluted with 50 mM HEPES buffer, pH 7.6 to derive the 0.45 μM stocks. A total of 90 nM rabbit E1 and varying concentrations of tag 1 was incubated at 37° C. for 5 min in 10 μL buffers of 50 mM Tris, 50 mM NaCl, 10 mM MgCl2, 10 μM ATP, pH 7.6. The reactions were terminated by the additions of 2 μL 6× bromophenol-absent SDS sample buffer and the mixtures were boiled at 85° C. for 2 min. The biotin-labeled E1 thioesters were resolved from the free biotin tags with 8-16% Tris-Glycine SDS-PAGE gel, transferred onto the PVDF membrane using a semi-dry protein transfer apparatus, and detected using the VECTASTAIN ABC-AmP detection system following the manufacturer's protocol. Briefly, the membrane was washed three times for 4 min each in 10 mL 1× casein solution at r.t. with gentle shaking, and then incubated in the 10 mL 1× casein blotting solution containing 20 μL each of reagent A and B from the kit for 10 min. The membrane was washed three times for 4 min each in 10 mL 1× casein solution, followed by equilibration in 10 mL 0.1M Tris buffer, pH 9.5, for 5 min. The excess buffer was removed and the blot surface was incubated in 3 mL DuoLux chemiluminescent substrate for 5 min under subdued light. Briefly rinse the blot in 0.1 M Tris buffer, pH 9.5, and remove the excess buffer by touching the edge of the blot to absorbent paper. The image was obtained by exposing the blot to the Kodak BioMax Light Film.

Experiment [3] addresses T2, UbCH7 (E2), human recombinant (Homo sapiens, UniProt P68036).
T2 construct: purchased Boston Biochem E2-640
The experiment can be described thus: E2-Biotin Tag Conjugation Assay. Format: biochemical. As to the method: The UbCH7 enzyme was diluted with a buffer of 50 mM HEPES, 50 mM NaCl, 10% glycerol, pH 7.6 to derive the 10 μM stocks. […] Reactions were terminated by the additions of 2 μL 6× non-reducing bromophenol-absent SDS-PAGE sample buffer and the mixtures were boiled at 85° C. for 2 min. The biotin-labeled […] were resolved from the free biotin tags with 8-16% Tris-Glycine SDS-PAGE gel, transferred onto the PVDF membrane using a semi-dry protein transfer apparatus, and detected using the VECTASTAIN ABC-AmP detection system following the manufacturer's protocol.

In experiment [4] the test system is Fraction II, rabbit reticulocyte. Nature of the experiment: Fraction II - Biotin Tag Conjugation Assay. It is filed as biochemical. The following applies: ubiquitin-free reticulocyte fraction II containing E1, E2, E3 activities. On the procedure: The fraction II from rabbit reticulocyte lysates was cleaned with ImmunoPure immobilized streptavidin beads from Pierce (Rockford, Ill.) to remove non-specific streptavidin-binding proteins following the manufacturer's instruction. An aliquot (11 μg) was then incubated with various amounts of biotin tag in 10 μL reaction buffer (100 mM Tris, 3 mM DTT, 5 mM MgCl2, 2 mM ATP, pH 7.6) at 37° C. for 5 min. The reactions were terminated by adding 2 μL 6×SDS-PAGE sample buffer and the mixtures were boiled at 85° C. for 2 min. The biotin-labeled substrates were resolved from the free biotin tags with 8-16% Tris-Glycine SDS-PAGE gel, transferred onto the PVDF membrane using a semi-dry protein transfer apparatus, and detected using the VECTASTAIN ABC-AmP detection system following the manufacturer's protocol.

T2 sequence (P68036 whole entry): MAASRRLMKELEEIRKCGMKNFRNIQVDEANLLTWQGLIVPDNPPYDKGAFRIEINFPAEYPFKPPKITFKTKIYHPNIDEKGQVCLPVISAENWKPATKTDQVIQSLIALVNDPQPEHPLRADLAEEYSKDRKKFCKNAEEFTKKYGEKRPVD

Consider `O=C(O)CCCCCNC(=O)CCCC[C@@H]1SC[C@@H]2NC(=O)N[C@@H]21` [long-chain biotin, biotinylaminohexanonic acid, reference compound], for which the “labeling of proteins in tubulin/parkin complex” value in experiment [1] (450 μM) was “no labeling of any protein”. Also, the “labeling of tubulin in tubulin/parkin complex (FIG. 8)” value in experiment [1] is on record as “could not label the tubulins”.

For the molecule “tag 1: biotin linked through aminohexanoic acid linker to recognition sequence LRLRGG (SEQ ID NO: 1) (HELM PEPTIDE1{[O=C1N[C@H]2[C@H](CS[C@H]2CCCCC(=O)[*:2])N1].[O=C(CCCCCN[*:1])[*:2]].L.R.L.R.G.G}$$$$V2.0; SMILES CC(C)C[C@H](NC(=O)CCCCCNC(=O)CCCC[C@@H]1SC[C@@H]2NC(=O)N[C@@H]21)C(=O)N[C@@H](CCCNC(=N)N)C(=O)N[C@@H](CC(C)C)C(=O)N[C@@H](CCCNC(=N)N)C(=O)NCC(=O)NCC(=O)O)”, the “formation of E1-biotin tag adduct (E1-1 thioester)” value in experiment [2] (incubated with E1 for 5 min, non-reducing ATP-supplemented buffer, streptavidin blot) is reported as “biotin-containing protein bands with the size matching that of E1 were detected”. For the same molecule, the “E1 biotin-adduct formation on withdrawal of ATP” value in experiment [2] (no ATP in reaction buffer, tag 150 μM (FIG. 6)) is on record as “aborted the biotin-adduct formation”. Besides, the “biotin labeling of E2 in the absence of E1” value in experiment [3] (incubation with E2 alone, no E1) is given as “did not give rise to the biotin-labeled E2”. Further, in experiment [3] (tag concentration reduced to 50 μM, E1 and E2 present), the “extent of tag transfer from E1-1 to E2” value is “undetectable level”. In experiment [4], the “covalent modification of proteins in fraction II extract” value is given as “concentration-dependent covalent modification of a large number of proteins”. The “concentration range of concentration-dependent biotin labeling of 55 KDa protein (tubulin)” value in experiment [1] (10 μM ATP, FIG. 2a) lay within 17 to 450 µM. Besides, in experiment [1], the “biotin labeling efficiency of parkin-mediated tubulin modification versus recognition sequence” value was “highest labeling efficacy” and the “labeling of tubulin in tubulin/parkin complex (FIG. 8)” value is recorded as “Robust labeling”.

As for “tag 2: biotin linked through aminohexanoic acid linker to sequence LALRGG (SEQ ID NO: 2) (HELM PEPTIDE1{[O=C1N[C@H]2[C@H](CS[C@H]2CCCCC(=O)[*:2])N1].[O=C(CCCCCN[*:1])[*:2]].L.A.L.R.G.G}$$$$V2.0; SMILES CC(C)C[C@H](NC(=O)CCCCCNC(=O)CCCC[C@@H]1SC[C@@H]2NC(=O)N[C@@H]21)C(=O)N[C@@H](C)C(=O)N[C@@H](CC(C)C)C(=O)N[C@@H](CCCNC(=N)N)C(=O)NCC(=O)NCC(=O)O)”, the “activity in E1 adduct formation” value in experiment [2] (concentrations as high as 450 μM) is on record as “almost no activity”. Besides, the “biotin labeling efficiency of parkin-mediated tubulin modification versus recognition sequence” value in experiment [1] was “decreased biotin labeling”.
